In patent US5506271A, “Method of treating papilloma virus infection using hypericin” (New York University, priority 1993, dated 1996):
“Also recorded” adds a separate entry of the source. Like-named read-outs stand apart in the source and are kept apart here.

Experiments:
murine RadLV particles = assay: Inactivation of RadLV particles by hypericin with Rose Bengal (particle-derived reverse transcriptase); assay type: biochemical; details: Rose Bengal 1-2 μg/ml, hypericin 0.001-1 μg/ml; FIG. 4
Experimental: Assays for virus particle-derived reverse transcriptase were performed according to Stephenson, J. R. et al., Virology 48:749-756 (1972)).
Hypericin is a photodynamic agent which, in the presence of light, produces excited oxygen species such as singlet oxygen and superoxide radicals. These excited oxygen species play a role in the antiviral and antiretroviral activity of hypericin and hypericin analogs. While this property of producing excited oxygen species may account for inactivation of the virus or retrovirus particle, it is not sufficient to explain the enhanced immunogenicity of the inactivated virus. Support for this notion comes from experimental findings by the present inventors using another photodynamic agent, Rose Bengal. Rose Bengal also produces excited oxygen species, is also capable of inactivating retroviral particles and interacts synergistically with hypericin in inactivating the virus.

Friend virus [1] = assay: Inactivation of Friend virus by hypericin, Rose Bengal and combinations, splenomegaly (FIG. 9); assay type: in vivo, BALB/C mice; details: agents at 2-5 mg/ml, 1 hour on ice, virus 1:2000, spleen weight day 14
Experimental: FIG. 9 is a graph showing the inactivation of Friend virus by Hypericin, Rose Bengal and combinations thereof. Friend virus was diluted 1:2000 in PBS and incubated with no hypericin or concentrations of hypericin of 1, 2, or 5 mg/ml alone, or in combination with Rose Bengal (RB) at concentrations of 2 and 5 mg/ml for 1 hour on ice. The treated virus preparations were injected into BALB/C mice. On day 14, 1 mouse from each group was sacrificed and analyzed for spleen weight.
FIGS. 9 and 10 show the results of a study in which Friend virus was treated with hypericin, Rose Bengal or combinations of hypericin and Rose Bengal at different concentrations and ratios. The virus treated in this manner was injected into BALB/C mice. […] Lack of, or suppression of, splenomegaly serves as an index of the degrees of virus inactivation. […] This proves that virus inactivation by both agents, alone and in combination, was effective.

Friend virus [2] = assay: Protective effect of virus preparations inactivated with hypericin, Rose Bengal or combinations against live Friend virus challenge (FIG. 10); assay type: in vivo, BALB/C mice; details: challenge day 21, spleens weighed after 15 days
Excerpt: FIG. 10 is a graph showing the protective effect of the inactivated virus preparations described in FIG. 9. On day 21 after administration of the treated virus preparation, all animals were challenged with live Friend virus. Also included were control groups of mice injected with live Friend virus, and mice injected with PBS only. After 15 days, all mice were sacrificed and their spleens weighed as a measure of protection.
In this experiment, inhibition of splenomegaly served as the measure of protection resulting from immunogenicity of the virus preparations.

[3] = tested on: HIV reverse transcriptase activity; assay: Reverse transcriptase activity of hypericin-treated HIV; assay type: biochemical; details: Expt 1
Experimental: Hypericin Reduces Infectivity and Reverse Transcriptase
Activity of HIV Infecting CEM × 14 Cells
(§1) overnight with hypericin at 4° C.. RT: reverse transcriptase

[4] = tested on: Radiation leukemia virus (RadLV); assay: Guanidinium hydrochloride extraction of RNA from hypericin-treated virions; parameters: species or system murine; details: virions treated with hypericin prior to GuHCl disruption; FIG. 3
Excerpt: The present inventors have further discovered that hypericin-treated retroviral particles become more resistant to dissociation by harsh denaturing reagents such as guanidinium hydrochloride (GuHCl). These denaturing agents effectively disrupt hydrogen bonding, thereby unfolding tertiary and quaternary structures of proteins and causing dissociation of bonded proteins and the collapse of biological structures.

retroviral particles = assay: Detergent-mediated (Triton X-100) release of reverse transcriptase from hypericin-treated viral particles; assay type: biochemical
Experimental: (§2) Thus it is much more difficult to measure reverse transcriptase from virus treated with hypericin prior to exposure to detergent than with virus first disrupted with detergent and then incubated with hypericin.
The effects on virion-encapsulated enzyme are presumed to be due to the failure of the capsids, within which the […] is sequestered, to be disrupted after hypericin treatment.

[5] = tested on: purified reverse transcriptase enzyme; assay: Enzymatic activity of purified reverse transcriptase enzyme; assay type: biochemical; details: assay conditions used, FIG. 2
Experimental: as §2

HIV [6] = assay: Effect of light on hypericin reduction of HIV infectivity titer for H9 target cells, limiting dilution assay; assay type: cell-based; details: ambient light; FIG. 5
Excerpt: FIG. 5 is a graph showing the effect of ambient light treatment on hypericin's ability to reduce the infectivity titer of HIV for H9 target cells, measured in a limiting dilution assay.

[7] = tested on: Friend leukemia virus (FLV); assay: Inactivation of Friend leukemia virus by extracorporeal hypericin treatment, splenomegaly in mice; assay type: in vivo, BALB/c mice
Experimental: FIG. 6 is a graph showing the inactivation of Friend leukemia virus (FLV) extracorporeal treatment with hypericin. Virus infectivity is measured as splenomegaly. Uninfected mice generally have spleen weights in the range of 0.08 to 0.2 grams.
Synthetic hypericin prepared from emodin was solubilized in 0.5% aqueous benzyl alcohol and administered to a concentrated stock of Friend virus estimated to contain greater than 10^4 virus focus forming units at final hypericin concentrations of 1 μg/ml and 5 μg/ml. The mixture was incubated on ice for one hour. A control preparation was incubated in parallel in the absence of the compound. Additional experimental groups were exposed to light from a 200 watt visible light halogen source in the presence of equivalent hypericin concentrations for 1×30 seconds and 2×30 seconds respectively.
The treated virus was diluted in phosphate buffered saline (PBS) to final dilutions of 1:500 and of 1:2000. The diluted treated and control virus preparations were injected intraperitoneally into BALB/c mice (3 mice per group). A single mouse from each group was sacrificed on day 11 for assessment of spleen size in order to determine the degree of FLV inactivation by hypericin.

[8] = Solubility of hypericin ion pair and salt forms in organic solvents; assay type: physicochemical
Excerpt: As indicated above, hypericin has hydroxy groups at R^1 and R^2 in its free acid form. Upon reaction with a base, the free acid form of hypericin ionizes at R^1 and R^2. Under alkaline conditions below about pH 11.5, only one of these hydroxy groups ionize to form a salt with the base. At more alkaline conditions, both hydroxy groups ionize to form a salt with two basic cations. The salt with two basic cations has substantially different physical properties as that with one cation. […] To differentiate these two forms of hypericin, the former, which behaves as an organic compound, will be referred to herein as an ion pair and the latter as a salt.

HIV [9] = assay: HIV infectivity monitored by HIV-induced destruction of CEM ×174 cultures infected with dilutions of hypericin-treated virus; assay type: cell-based; details: for log reduction at 10 µg/mL: hypericin 10 μg/ml
Experimental: Hypericin can effectively inactivate retroviral particles rendering them non infectious.
In these experiments infectivity was monitored by HIVinduced destruction
of CEM ×174 after these cultures were infected with increasing
dilutions of hypericintreated virus. For Experiment 2, virus was incubate
as §1

O=C1OC2(c3cc(I)c(O)c(I)c3Oc3c2cc(I)c(O)c3I)c2c(Cl)c(Cl)c(Cl)c(Cl)c21 [Rose Bengal]
effect of Rose Bengal on hypericin inactivation of retroviral particles (murine RadLV particles): enhances the ability of hypericin; also recorded: enhanced the ability of hypericin to inactivate retroviral particles | suppression of virus-induced splenomegaly (virus inactivation) (Friend virus [1]): effectively suppressed virus-induced splenomegaly | protection from live virus challenge (immunogenicity of inactivated virus preparation) (Friend virus [2]): does not cause marked enhancement of immunogenicity | protection from live virus challenge (immunogenicity of inactivated virus preparation) (Friend virus [2]; listed as Rose-Bengal): lower levels of protection

Cc1cc(O)c2c(=O)c3c(O)cc(O)c4c5c(O)cc(O)c6c(=O)c7c(O)cc(C)c8c1c2c(c34)c(c78)c65 [hypericin]
INHIBITION (Log1 0 Reduction) RT ([3]; hypericin 10 μg/ml): 0.60 Log1 0 Reduction | INHIBITION (Log1 0 Reduction) RT ([3]; hypericin 25 μg/ml): 1.72 Log1 0 Reduction | extraction of viral RNA by guanidinium hydrochloride [4]: dramatic inhibition of the ability of guanidinium hydrochloride to extract RNA; also recorded: yields of extractable RNA were markedly reduced | detergent-mediated release of reverse transcriptase activity from viral particles (retroviral particles; 0.5-1% Triton X-100, FIG. 1): prevents detergent-mediated (0.5-1% Triton X-100) release of reverse transcriptase activity | resistance of virion to disruption with non-ionic detergents (retroviral particles; 1% aqueous Triton X-100): more resistant to disruption | effect on reverse transcriptase enzymatic activity [5]: no effect on reverse transcriptase enzymatic activity; also recorded: does not directly affect enzymatic activity of purified reverse transcriptase enzyme | suppression of virus-induced splenomegaly (virus inactivation) (Friend virus [1]): effectively suppressed virus-induced splenomegaly | effect of light on antiviral activity of hypericin (HIV [6]): Light can enhance the antiviral activity | effect of increased light exposure on FV inactivation by hypericin ([7]; 200 watt visible light halogen source, 1×30 and 2×30 seconds): did not enhance the ability of hypericin to inactivate FV | virus-induced splenomegaly after injection of hypericin-treated FLV ([7]; hypericin 1 and 5 μg/ml, 1 hour on ice, i.p. BALB/c mice, spleen size day 11, FIG. 6): significantly reduced the ability of the virus to induce splenomegaly; also recorded: absence or presence of minimal splenomegaly | solubility in organic solvents ([8]; above pH 11.5 (salt, two cations)): substantially insoluble in organic solvents | solubility in organic solvents ([8]; below pH 11.5 (ion pair, one cation)): soluble in organic solvents | protection from live virus challenge (immunogenicity of inactivated virus preparation) (Friend virus [2]): greatest degree of protection | log reduction at 10 µg/mL (HIV [9]; Human immunodeficiency virus 1, CEM174, Expt 1, read-out: INHIBITION (Log1 0 Reduction) INFECTIVITY): 4 | log reduction at 25 µg/mL (HIV [9]; Human immunodeficiency virus 1, CEM174, Expt 1, hypericin 25 μg/ml, read-out: INHIBITION (Log1 0 Reduction) INFECTIVITY): 4.75 | log reduction at 1 µg/mL (HIV [9]; Human immunodeficiency virus 1, CEM174, Expt 2, hypericin 1 μg/ml, virus incubated overnight at 4° C., read-out: INHIBITION (Log1 0 Reduction) INFECTIVITY): 0 | log reduction at 2 µg/mL (HIV [9]; Human immunodeficiency virus 1, CEM174, Expt 2, hypericin 2 μg/ml, virus incubated overnight at 4° C., read-out: INHIBITION (Log1 0 Reduction) INFECTIVITY): 3.75 | log reduction at 5 µg/mL (HIV [9]; Human immunodeficiency virus 1, CEM174, Expt 2, hypericin 5 μg/ml, virus incubated overnight at 4° C., read-out: INHIBITION (Log1 0 Reduction) INFECTIVITY): 4.25 | log reduction at 10 µg/mL (HIV [9]; Human immunodeficiency virus 1, CEM174, Expt 2, virus incubated overnight at 4° C., read-out: INHIBITION (Log1 0 Reduction) INFECTIVITY): 4.75 | HIV infectivity titers diminished (HIV [9]; after treatment with hypericin (summary of Table 3)): 3-4 logs
